Measurements published in PMC11129182, “Development of Inhibitors, Probes, and PROTAC Provides a Complete Toolbox to Study PARK7 in the Living Cell” (Journal of Medicinal Chemistry, 2024).
Like-named read-outs stand apart in the source and are kept apart here.

How the values were obtained:
[1] = biological target: reactive cysteine sites of other proteins in A549 cells (Homo sapiens, UniProt P40222); conditions: 4 h, P40222_C87 Alpha-taxilin
Source text: (§1) Further, the samples were digested with tosylsulfonyl phenylalanyl chloromethyl ketone (TPCK)-treated trypsin and endoGluC to increase the coverage of protein sequences, especially the PARK7 peptide containing Cys106 residue. Peptides generated by digestion from replicates of each sample were labeled using TMT16-plex to perform tandem mass tag (TMT)-based quantitative proteomics profiling. Following the TMT labeling, all samples were pooled and the peptides conjugated to the DBIA probe were enriched by streptavidin beads and analyzed by LC-MS/MS (Figure 3A). […] All cysteines were represented with the shortest peptide by using the average CR values of all the peptides with the same modified cysteine from the same protein in the same condition.[16],[27],[28]
(§2) A549 cells were seeded into 10 cm plates in 10 mL of media. […] The cells were then washed two times with cold PBS (1 mL per 10 cm plate) and collected by scraping them with a cell scraper. Cells were lysed by sonication in ice-cold PBS and centrifuged at 15,000 rpm for 2 min to remove cell debris. The BCA Gold protein assay (Thermo Fisher Scientific) was performed to determine protein concentration. Each sample (100 μg) was labeled with 500 μM DBIA probe for 1 h in the dark at room temperature (RT). Excess DBIA and disulfide bonds were quenched and reduced, respectively, using 5 mM dithiothreitol (DTT) for 30 min in the dark at RT. Reduced disulfide bonds were alkylated using 20 mM iodoacetamide for 30 min in the dark at RT. […] Digested peptides were labeled with TMTpro16-plex reagents (Thermo Fisher Scientific) in a 1:4 ratio by mass (peptides/TMT reagents) for 1 h at RT. Excess TMT reagent was quenched with 5 μL 6% hydroxylamine for 15 min at RT. All samples were then pooled and lyophilized.
(§3) Nonspecific binding peptides were washed away using the following procedure: 3 × 1 mL of PBS pH 7.4, 2 × 1 mL of PBS with 0.1% SDS pH 7.4, and 3 × 1 mL of HPLC-grade water. DBIA probe-containing peptides were eluted using 700 μL of 50% acetonitrile in 0.1% TFA, lyophilized using a Speedvac, and desalted using a handmade mini-SPE column (10% sorbent material of a Waters, OASIS 1 cm^3 HLB 30 mg cartridge). Column was equilibrated with 200 μL of 90% acetonitrile and 3 × 200 μL of 10 mM NH4HCO3 pH 8.4. The dried sample was dissolved in 200 μL of 10 mM NH4HCO3 pH 8.4, loaded onto the column, washed 3x with 200 μL of 10 mM NH4HCO3 pH 8.4, and eluted into 3 fractions with 150 μL of 10, 20, and 50% acetonitrile (in 10 mM NH4HCO3). Samples were then lyophilized.
(§4) 2.2.04 (www.matrixscience.com) for protein identification. Mascot searches were done with 10 ppm and 0.02 Da deviation for the precursor and fragment mass, respectively, and the enzymes trypsin and EndoGluC was specified, up to three missed cleavages were allowed. Methionine oxidation, acetyl (protein N-term), and DBIA on Cys were set as a variable modification. Carbamidomethyl on Cys and TMTpro on Lys and N-term were set as a fixed modification. Peptides with an FDR <1% were accepted. Peptides were only retained, if they were quantified and if there was exactly one DBIA modification on the peptide. The values for each TMT channel were normalized to the average of the values for the DMSO samples for the same peptide, and these values were named CR. For each peptide, the first entry of the Master Protein Accessions column was chosen as the Master Protein Accession, and the residue number of the cysteine modified by DBIA within the entire protein sequence was determined. Using this information, each peptide was assigned an identifier consisting of the Master Protein Accession and the residue number of the modified cysteine to assign each peptide to the respective modified cysteine residue. Within each replicate, CR values for all peptides with the same identifier (and thus the same modified cysteine residue) were combined by averaging and only the shortest Annotated Sequence was kept as the final Annotated Sequence.

[2] = biological target: reactive cysteine sites of other proteins in A549 cells (Homo sapiens, UniProt Q13085); conditions: 4 h, Q13085_C1297 Acetyl-CoA carboxylase 1
Source text: as §1, §2, §3, §4

[3] = biological target: T1, reactive cysteine sites of other proteins in A549 cells (Homo sapiens, UniProt O60664); conditions: 4 h, O60664_C39 Perilipin-3
T1 sequence (O60664 1-434): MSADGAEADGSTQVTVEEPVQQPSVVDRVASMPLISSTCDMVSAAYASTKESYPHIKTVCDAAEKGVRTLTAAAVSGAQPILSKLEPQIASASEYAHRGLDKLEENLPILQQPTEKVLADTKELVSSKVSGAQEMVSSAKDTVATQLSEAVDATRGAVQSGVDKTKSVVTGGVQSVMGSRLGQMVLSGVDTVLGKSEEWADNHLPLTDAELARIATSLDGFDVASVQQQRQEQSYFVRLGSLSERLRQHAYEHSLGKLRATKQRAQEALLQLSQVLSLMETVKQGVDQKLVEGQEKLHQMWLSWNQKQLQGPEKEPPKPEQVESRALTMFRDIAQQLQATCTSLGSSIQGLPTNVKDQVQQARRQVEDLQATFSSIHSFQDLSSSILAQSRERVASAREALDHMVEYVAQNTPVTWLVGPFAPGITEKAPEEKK
Source text: as §1, §2, §3, §4

[4] = biological target: reactive cysteine sites of other proteins in A549 cells (Homo sapiens, UniProt P04080); conditions: 4 h, P04080_C3 Cystatin-B
reactive cysteine sites of other proteins in A549 cells (Homo sapiens, UniProt P04080), sequence (P04080 whole entry): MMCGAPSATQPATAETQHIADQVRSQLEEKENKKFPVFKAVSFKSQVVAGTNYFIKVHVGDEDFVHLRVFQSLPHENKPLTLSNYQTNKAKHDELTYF
Source text: as §1, §2, §3, §4

reactive cysteine sites of other proteins in A549 cells (Homo sapiens, UniProt P40222), sequence (P40222 whole entry): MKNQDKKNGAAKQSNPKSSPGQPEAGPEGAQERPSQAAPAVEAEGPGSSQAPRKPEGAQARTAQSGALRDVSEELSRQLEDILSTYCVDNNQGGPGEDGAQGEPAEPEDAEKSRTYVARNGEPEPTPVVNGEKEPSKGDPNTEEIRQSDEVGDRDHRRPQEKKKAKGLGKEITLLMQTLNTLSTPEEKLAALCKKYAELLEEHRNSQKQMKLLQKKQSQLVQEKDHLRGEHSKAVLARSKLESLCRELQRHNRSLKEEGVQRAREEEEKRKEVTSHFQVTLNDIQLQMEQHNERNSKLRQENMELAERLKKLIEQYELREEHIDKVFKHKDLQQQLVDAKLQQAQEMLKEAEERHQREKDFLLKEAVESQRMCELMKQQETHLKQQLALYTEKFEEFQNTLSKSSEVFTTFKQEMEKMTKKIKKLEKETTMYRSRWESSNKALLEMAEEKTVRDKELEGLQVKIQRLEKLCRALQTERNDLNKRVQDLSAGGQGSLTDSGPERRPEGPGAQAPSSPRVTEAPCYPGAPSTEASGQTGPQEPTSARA

N#CN1CC[C@@H](C(=O)Nc2nc3c(s2)CN(C(=O)c2cc(-n4ccnn4)ccc2F)CC3)C1 [Compound 84, (R)-1-Cyano-N-(5-(2-fluoro-5-(1H-1,2,3-triazol-1-yl)benzoyl)-4,5,6,7-tetrahydrothiazolo[5,4-c]pyridin-2-yl)pyrrolidine-3-carboxamide]
Average log2 CR (DMSO/inhibitor) ([1]; A549, 0.5 µM): 0.7392 | Average log2 CR (DMSO/inhibitor) ([1]; A549, 5 µM): 1.414 | Average log2 CR (DMSO/inhibitor) ([2]; A549, 0.5 µM): 0.6874 | Average log2 CR (DMSO/inhibitor) ([2]; A549, 5 µM): 1.886 | Average log2 CR (DMSO/inhibitor) ([3]; A549, 0.5 µM): 0.4419 | Average log2 CR (DMSO/inhibitor) ([3]; A549, 5 µM): 1.439 | Average log2 CR (DMSO/inhibitor) ([4]; A549, 0.5 µM): 0.9051 | Average log2 CR (DMSO/inhibitor) ([4]; A549, 5 µM): 1.676
